Like-named read-outs stand apart in the source and are kept apart here.
Experiments:
[1] = Population PK model for telavancin from Phase 1, 2 and 3 plasma concentrations; format: in vivo; settings: both sexes, human, intravenous, final combined population PK model, read-out: CL, population estimate ± SE (converted)
[2] = Observed outcomes in Phase 3 HABP/VABP and cSSSI studies 0015, 0017, 0018, 0019; format: in vivo, human
Excerpt: The data for the simulations was based on 1771 subjects from Studies 0015, 0017, 0018 and 0019.
The data for the analysis was based upon 579 subjects from Studies 0015, 0017, 0018 and 0019. […]

[3] = Individually predicted steady state exposure in Phase 3 subjects with PK samples; format: in vivo; settings: human, plasma, intravenous
Method: This analysis was designed to describe the relationship between exposure and response in patients treated with telavancin.
The predicted telavancin PK profiles for each subject were generated using the individually estimated PK parameters determined during the population PK analysis based on the administered dose as recorded in the dataset. The individually estimated PK parameters for each subject were determined based upon the specific intra- and inter-individual errors determined using nonlinear mixed effect analysis.

[4] = Logistic regression of outcomes as a function of steady state exposure (AUC0-24h) in Phase 3 subjects; format: in vivo, human
Method: Logistic regression analysis was used to parameterize the relationship between exposure (AUC0-24h) and the probability of 28-day all-cause mortality, AKI (defined as a 50% increase or greater than 0.5 mg/dL increase in serum creatinine) and clinical response at test of cure (TOC) for all Phase 3 subjects. The analysis was repeated for the individual HABP/VABP and cSSSI subpopulations.
Logistic regression analyses were conducted on the Phase 3 dataset using individually predicted exposure (AUC0-24h) and the outcomes of interest (28-day all-cause mortality, AKI, and clinical response at TOC). The analysis was performed using the generalized linear model function in R specifying a binomial variance and the logit link function.
The output produced for each logistic regression analysis includes indices of fit (i.e., null and deviance residuals, Akaike's information criterion and likelihood ratio test statistics to provide an assessment of model improvement as additional parameters are included in the model).

[5] = CART (classification and regression tree) analysis of exposure and 28-day mortality; format: in vivo, human; settings: HABP/VABP subjects with renal impairment
Method: Values were determined for each simulated clinical trial (n=100), and presented as a mean and standard deviation.
The logistic regression analysis in HABP/VABP subjects with impaired renal function (CrCl≦50 mL/min) is consistent with the results of the CART analysis in HABP/VABP subjects with renal impairment.

[6] = Phase 3 HABP/VABP subjects with PK samples, n=196
[7] = Phase 3 Total with PK samples, n=579
[8] = Phase 3 all-treated HABP/VABP subjects, n=750
[9] = Phase 3 all-treated Total, n=1771
[10] = Phase 3 all-treated cSSSI subjects, n=1021
[11] = Phase 3 cSSSI subjects with PK samples, n=383

In the case of `CCCCCCCCCCNCCNC1(C)CC(OC2C(Oc3c4cc5cc3Oc3ccc(cc3Cl)[C@@H](O)[C@@H](NC(=O)[C@@H](CC(C)C)NC)C(=O)N[C@@H](CC(N)=O)C(=O)N[C@H]5C(=O)N[C@H]3C(=O)N[C@H](C(=O)N[C@H](C(=O)O)c5cc(O)c(CNCP(=O)(O)O)c(O)c5-c5cc3ccc5O)[C@H](O)c3ccc(c(Cl)c3)O4)OC(CO)C(O)C2O)OC(C)C1O` (stereo partly shown) [telavancin, N^3″-[2-(decylamino)ethyl]-29-[[(phosphonomethyl)amino]methyl]vancomycin], the clearance [1] is reported as 19.2 mL/min, the “AKI, Y (number of subjects)” value [2, 6] is reported as “Y = 39, N = 157” and the “CURE (number of subjects)” value [2, 6] is reported as “CURE = 127,”. The “MORTALITY, Y (number of subjects)” value [2, 6] was “Y = 45, N = 151”, the “AKI, Y (number of subjects)” value [2, 7] was “Y = 78, N = 500,” and the “CURE (number of subjects)” value [2, 7] was “CURE = 449,”. For the same compound, the “MORTALITY, Y (number of subjects)” value [2, 7] was “Y = 46, N = 533”, the “AKI, Y (number of subjects)” value [2, 8] was “Y = 171, N = 542,” and the “CURE (number of subjects)” value [2, 8] was “CURE = 442,”. The “MORTALITY, Y (number of subjects)” value [2, 8] was “Y = 178, N = 572,”, the “AKI, Y (number of subjects)” value [2, 9] was “Y = 291, N = 1413,” and the “CURE (number of subjects)” value [2, 9] was “CURE = 1230,”. The “MORTALITY, Y (number of subjects)” value [2, 9] was “Y = 187, N = 1584”, the “AKI, Y (number of subjects)” value [2, 10] was “Y = 120, N = 871,” and the “CURE (number of subjects)” value [2, 10] was “CURE = 788,”. The “MORTALITY, Y (number of subjects)” value [2, 10] was “Y = 9, N = 1012,”, the “AKI, Y (number of subjects)” value [2, 11] was “Y = 39, N = 343,” and the “CURE (number of subjects)” value [2, 11] was “CURE = 322,”. It also gave an AUC0-24 at steady state ([3]; HABP/VABP subjects, n=196, read-out: AUC0-24, mean ± SD (range)) of 670 ± 231 µg·h/mL, an AUC0-24 at steady state ([3]; Total, n=579, read-out: AUC0-24, mean ± SD (range)) of 671 ± 214 µg·h/mL and an AUC0-24 at steady state ([3]; cSSSI subjects, n=383, read-out: AUC0-24, mean ± SD (range)) of 671 ± 206 µg·h/mL. For the same compound, the “Steady State AUC0-24 h coefficient, Estimate; clinical response at TOC” value ([4]; all HABP/VABP subjects) was 4.50e−4, the “Steady State AUC0-24 h coefficient, Pr(>|z|); clinical response at TOC” value ([4]; all HABP/VABP subjects) was 0.495 and the “Steady State AUC0-24 h coefficient, Estimate; clinical response at TOC” value ([4]; all Phase 3 subjects) was 4.29e−3. For the same compound, the “Steady State AUC0-24 h coefficient, Pr(>|z|); clinical response at TOC” value ([4]; all Phase 3 subjects) was 0.368, the “Steady State AUC0-24 h coefficient, Estimate; clinical response at TOC” value ([4]; all cSSSI subjects) was 4.11e−4 and the “Steady State AUC0-24 h coefficient, Pr(>|z|); clinical response at TOC” value ([4]; all cSSSI subjects) was 0.557. The “predicted exposure with greater likelihood of 28-day mortality (CART cutpoint)” value [5] was “greater than 767 μg·hr/mL”.
